Test results published in patent publication US9587005B2 (priority 2010, dated 2017).
Where two headings read alike, the source gives them in different places. *1 amine or outer side, *2 acyl side, *3 side chain or, on linkers, in order; H or OH if unused. Where a SMILES comes first, the peptide text is derived from it. Where no end group is shown, it is not given here. Side-chain parts run from the residue outwards. [ ]: non-standard residue; d: D form. The star is where a group is joined. X5 = CCCCCCCCCCCCCCCC(=O)N[C@@H](CCC(=O)NCCCC[C@H](NC(=O)CC[C@H](NC(=O)CCCCCCCCCCCCCCC)C(=O)O)C(=O)*)C(=O)O; PEG8 = NCCOCCOCCOCCOCCOCCOCCOCCOCCC(=O)O; γGlu = O=C(O)[C@H](CCC(=O)[*:2])N[*:1]; Palmitoyl = CCCCCCCCCCCCCCCC(=O)*; Aib = CC(C)(N)C(=O)O

Experiments:
Assay type in all cases: cell-based
[1] = target: T1, glucagon receptor (Homo sapiens, UniProt P47871); assay: cAMP induction, firefly luciferase reporter assay in HEK293 cells co-transfected with glucagon receptor
T1 construct: expressed in transfected cells; host or cells: HEK293
From the text: (§1) This example describes an exemplary method of testing the biological activity of the peptides of the present disclosures, which method involves assaying cAMP synthesis.

[2] = target: T2, GLP-1 receptor (Homo sapiens, UniProt P43220); assay: cAMP induction, firefly luciferase reporter assay in HEK293 cells co-transfected with GLP-1 receptor
T2 construct: expressed in transfected cells; host or cells: HEK293
From the text: as §1

[3] = target: T3, GIP receptor (Homo sapiens, UniProt P48546); assay: cAMP induction, firefly luciferase reporter assay in HEK293 cells co-transfected with GIP receptor
T3 sequence (P48546 22-466): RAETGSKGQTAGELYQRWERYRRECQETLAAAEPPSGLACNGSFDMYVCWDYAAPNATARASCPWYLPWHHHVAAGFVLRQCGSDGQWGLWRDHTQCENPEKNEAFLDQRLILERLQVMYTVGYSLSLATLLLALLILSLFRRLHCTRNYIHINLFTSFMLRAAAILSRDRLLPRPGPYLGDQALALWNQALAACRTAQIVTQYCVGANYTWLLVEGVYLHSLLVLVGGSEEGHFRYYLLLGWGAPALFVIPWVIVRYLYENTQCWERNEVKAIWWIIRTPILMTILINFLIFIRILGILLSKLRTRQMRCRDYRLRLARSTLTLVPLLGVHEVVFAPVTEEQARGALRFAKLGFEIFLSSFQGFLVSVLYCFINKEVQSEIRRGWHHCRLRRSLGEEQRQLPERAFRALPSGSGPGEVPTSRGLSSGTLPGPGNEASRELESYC

[4] = EC50 (nM) at glucagon receptor, Table 16, Example 24
[5] = GLP-1 Receptor EC50, Table 10, Example 16
[6] = Table 12, Example 19, read-out: EC50 (cAMP, nmole) GLPR
[7] = Table 10, Example 16, read-out: GIP-1 Receptor EC50
[8] = EC50 (nM) at Glucagon Receptor, Table 4, Example 9, composite of multiple different activity assays
[9] = EC50 (nM) at GLP-1 Receptor, Table 4, Example 9, composite of multiple different activity assays

T1 sequence (P47871 26-477): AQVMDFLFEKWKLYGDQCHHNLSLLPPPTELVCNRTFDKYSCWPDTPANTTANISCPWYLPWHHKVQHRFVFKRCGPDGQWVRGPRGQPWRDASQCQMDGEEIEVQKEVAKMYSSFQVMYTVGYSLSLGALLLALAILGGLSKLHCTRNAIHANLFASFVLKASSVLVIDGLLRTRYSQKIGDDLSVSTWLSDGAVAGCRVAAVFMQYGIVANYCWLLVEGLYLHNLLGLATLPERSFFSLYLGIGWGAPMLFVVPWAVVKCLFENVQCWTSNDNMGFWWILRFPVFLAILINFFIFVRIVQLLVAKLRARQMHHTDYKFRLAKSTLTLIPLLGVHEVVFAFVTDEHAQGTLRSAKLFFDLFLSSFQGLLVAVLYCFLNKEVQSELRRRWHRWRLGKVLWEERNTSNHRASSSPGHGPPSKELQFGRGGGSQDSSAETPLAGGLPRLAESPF
T2 sequence (P43220 24-463): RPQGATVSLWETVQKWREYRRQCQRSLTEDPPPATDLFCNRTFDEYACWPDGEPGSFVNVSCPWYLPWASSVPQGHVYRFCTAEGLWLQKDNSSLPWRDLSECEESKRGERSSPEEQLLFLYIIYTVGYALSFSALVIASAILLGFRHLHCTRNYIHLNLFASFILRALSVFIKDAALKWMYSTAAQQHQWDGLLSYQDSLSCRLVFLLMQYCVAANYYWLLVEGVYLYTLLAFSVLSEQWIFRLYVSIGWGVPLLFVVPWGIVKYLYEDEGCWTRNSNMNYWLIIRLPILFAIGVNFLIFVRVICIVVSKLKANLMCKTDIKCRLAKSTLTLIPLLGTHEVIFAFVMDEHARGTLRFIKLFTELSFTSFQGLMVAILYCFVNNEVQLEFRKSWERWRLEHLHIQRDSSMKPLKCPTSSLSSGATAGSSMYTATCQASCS

CCCCCCCCCCCCCCCC(=O)N[C@@H](CCC(=O)N[C@@H](CCC(=O)NCCCC[C@H](NC(=O)[C@H](CC(=O)O)NC(=O)[C@H](CO)NC(=O)[C@@H](NC(=O)[C@H](Cc1ccccc1)NC(=O)[C@@H](NC(=O)CNC(=O)[C@H](CCC(N)=O)NC(=O)C(C)(C)NC(=O)[C@@H](N)Cc1c[nH]cn1)[C@@H](C)O)[C@@H](C)O)C(=O)N[C@@H](CO)C(=O)N[C@@H](CCCCN)C(=O)N[C@@H](Cc1ccc(O)cc1)C(=O)N[C@@H](CC(C)C)C(=O)N[C@@H](CC(=O)O)C(=O)N[C@@H](CCC(=O)O)C(=O)N[C@@H](CCCNC(=N)N)C(=O)N[C@@H](C)C(=O)N[C@@H](C)C(=O)N[C@@H](CCC(N)=O)C(=O)N[C@@H](CC(=O)O)C(=O)N[C@@H](Cc1ccccc1)C(=O)N[C@H](C(=O)N[C@@H](CCC(N)=O)C(=O)N[C@@H](Cc1c[nH]c2ccccc12)C(=O)N[C@@H](CC(C)C)C(=O)N[C@@H](CC(C)C)C(=O)N[C@@H](CC(=O)O)C(=O)NCC(=O)NCC(=O)N1CCC[C@H]1C(=O)N[C@@H](CO)C(=O)N[C@@H](CO)C(=O)NCC(=O)N[C@@H](C)C(=O)N1CCC[C@H]1C(=O)N1CCC[C@H]1C(=O)N1CCC[C@H]1C(=O)N[C@@H](CO)C(=O)NCC(N)=O)C(C)C)C(=O)O)C(=O)O [SEQ ID NO: 207] (H-H[Aib]QGTFTSDK([γGlu-γGlu-Palmitoyl])SKYLDERAAQDFVQWLLDGGPSSGAPPPSG-NH2; N-terminus assumed)
EC50 [1, 4]: 0.005 nM
EC50 ([2]; EC50 (nM) at GLP-1 receptor, Table 16, Example 24): 0.002 nM
EC50 ([3]; EC50 (nM) at GIP receptor, Table 16, Example 24): 0.015 nM

CCCCCCCCCCCCCCCC(=O)N[C@@H](CCC(=O)NCCCC[C@H](NC(=O)[C@H](CC(=O)O)NC(=O)[C@H](CO)NC(=O)[C@@H](NC(=O)[C@H](Cc1ccccc1)NC(=O)[C@@H](NC(=O)CNC(=O)[C@H](CCC(N)=O)NC(=O)C(C)(C)NC(=O)[C@@H](N)Cc1c[nH]cn1)[C@@H](C)O)[C@@H](C)O)C(=O)N[C@@H](CO)C(=O)N[C@@H](CCCCN)C(=O)N[C@@H](Cc1ccc(O)cc1)C(=O)N[C@@H](CC(C)C)C(=O)N[C@@H](CC(=O)O)C(=O)N[C@@H](CCC(=O)O)C(=O)N[C@@H](CCCNC(=N)N)C(=O)N[C@@H](C)C(=O)N[C@@H](C)C(=O)N[C@@H](CCC(N)=O)C(=O)N[C@@H](CC(=O)O)C(=O)N[C@@H](Cc1ccccc1)C(=O)N[C@H](C(=O)N[C@@H](CCC(N)=O)C(=O)N[C@@H](Cc1c[nH]c2ccccc12)C(=O)N[C@@H](CC(C)C)C(=O)N[C@@H](CC(C)C)C(=O)N[C@@H](CC(=O)O)C(=O)NCC(=O)NCC(=O)N1CCC[C@H]1C(=O)N[C@@H](CO)C(=O)N[C@@H](CO)C(=O)NCC(=O)N[C@@H](C)C(=O)N1CCC[C@H]1C(=O)N1CCC[C@H]1C(=O)N1CCC[C@H]1C(=O)N[C@@H](CO)C(N)=O)C(C)C)C(=O)O [SEQ ID NO: 28]
EC50 ([1]; EC50 (nM) at glucagon receptor, Table 15, Example 23): 0.002 nM
EC50 [1, 4]: 0.003 nM
EC50 ([2]; EC50 (nM) at GLP-1 receptor, Table 15, Example 23): 0.002 nM
EC50 [2, 5]: 0.007 nM
EC50 [2, 6]: 0.003 nM
EC50 ([3]; EC50 (nM) at GIP receptor, Table 15, Example 23): 0.002 nM
EC50 ([3]; GIP (0.01), Table 8, Example 14, activity at the GIP receptor): 0.003 nM
EC50 [3, 7]: 0.003 nM
EC50 ([3]; Table 12, Example 19, read-out: EC50 (cAMP, nmole) GIPR): 0.007 nM

CCCCCCCCCCCCCCCC(=O)N[C@@H](CCC(=O)NCCCC[C@H](NC(=O)[C@H](CCCCN)NC(=O)[C@H](CO)NC(=O)[C@H](Cc1ccc(O)cc1)NC(=O)[C@H](CC(=O)O)NC(=O)[C@H](CO)NC(=O)[C@@H](NC(=O)[C@H](Cc1ccccc1)NC(=O)[C@@H](NC(=O)CNC(=O)[C@H](CCC(N)=O)NC(=O)C(C)(C)NC(=O)[C@@H](N)Cc1c[nH]cn1)[C@@H](C)O)[C@@H](C)O)C(=O)N[C@@H](CC(C)C)C(=O)N[C@@H](CC(=O)O)C(=O)N[C@@H](CCC(=O)O)C(=O)N[C@@H](CCCNC(=N)N)C(=O)N[C@@H](C)C(=O)N[C@@H](C)C(=O)N[C@@H](CCC(N)=O)C(=O)N[C@@H](CC(=O)O)C(=O)N[C@@H](Cc1ccccc1)C(=O)N[C@H](C(=O)N[C@@H](CCC(N)=O)C(=O)N[C@@H](Cc1c[nH]c2ccccc12)C(=O)N[C@@H](CC(C)C)C(=O)N[C@@H](CC(C)C)C(=O)N[C@@H](CC(=O)O)C(=O)NCC(=O)NCC(=O)N1CCC[C@H]1C(=O)N[C@@H](CO)C(=O)N[C@@H](CO)C(=O)NCC(=O)N[C@@H](C)C(=O)N1CCC[C@H]1C(=O)N1CCC[C@H]1C(=O)N1CCC[C@H]1C(=O)N[C@@H](CO)C(N)=O)C(C)C)C(=O)O [SEQ ID NO: 151] (H-H[Aib]QGTFTSDYSKK([γGlu-Palmitoyl])LDERAAQDFVQWLLDGGPSSGAPPPS-NH2)
EC50 ([1]; Glucagon Receptor EC50, Table 10, Example 16): 0.008 nM
EC50 [2, 5]: 0.004 nM
EC50 [3, 7]: 0.309 nM

CCCCCCCCCCCCCCCC(=O)N[C@@H](CCC(=O)NCCCC[C@H](NC(=O)CC[C@H](NC(=O)CCCCCCCCCCCCCCC)C(=O)O)C(=O)NCCCC[C@H](NC(=O)[C@H](CO)NC(=O)[C@@H]1CCCN1C(=O)[C@@H]1CCCN1C(=O)[C@@H]1CCCN1C(=O)[C@H](C)NC(=O)CNC(=O)[C@H](CO)NC(=O)[C@H](CO)NC(=O)[C@@H]1CCCN1C(=O)CNC(=O)CNC(=O)[C@H](CC(=O)O)NC(=O)[C@H](CC(C)C)NC(=O)[C@H](CC(C)C)NC(=O)[C@H](Cc1c[nH]c2ccccc12)NC(=O)[C@H](CCC(N)=O)NC(=O)[C@@H](NC(=O)[C@H](Cc1ccccc1)NC(=O)[C@H](CC(=O)O)NC(=O)[C@H](CCC(N)=O)NC(=O)[C@H](C)NC(=O)[C@H](C)NC(=O)[C@H](CCCNC(=N)N)NC(=O)[C@H](CCC(=O)O)NC(=O)[C@H](CC(=O)O)NC(=O)[C@H](CC(C)C)NC(=O)[C@H](Cc1ccc(O)cc1)NC(=O)[C@H](CCCCN)NC(=O)[C@H](CO)NC(=O)[C@H](Cc1ccc(O)cc1)NC(=O)[C@H](CC(=O)O)NC(=O)[C@H](CO)NC(=O)[C@@H](NC(=O)[C@H](Cc1ccccc1)NC(=O)[C@@H](NC(=O)CNC(=O)[C@H](CCC(N)=O)NC(=O)C(C)(C)NC(=O)[C@@H](N)Cc1c[nH]cn1)[C@@H](C)O)[C@@H](C)O)C(C)C)C(N)=O)C(=O)O [SEQ ID NO: 161] (H-H[Aib]QGTFTSDYSKYLDERAAQDFVQWLLDGGPSSGAPPPSK(X5)-NH2)
EC50 ([1]; Table 12, Example 19, read-out: EC50 (cAMP, nmole) GCGR): 0.011 nM
EC50 [2, 6]: 0.007 nM
EC50 ([3]; EC50 (cAMP, nmole) GIPR, Table 12, Example 19): 0.01 nM

H[Aib]QGTFTSDYSKYLDERAAQDFVQWLLDGGPSSGAPPPSK([PEG8-γGlu-Palmitoyl])G-NH2 [SEQ ID NO: 159]
EC50 ([1]; Glucagon Receptor EC50, Table 11, Example 18): 0.006 nM
EC50 ([2]; GLP-1 Receptor EC50, Table 11, Example 18): 0.005 nM
EC50 ([3]; GIP Receptor EC50, Table 11, Example 18): 0.002 nM

CCCCCCCCCCCCCCCC(=O)N[C@@H](CCC(=O)N[C@@H](CCC(=O)NCCCC[C@H](NC(=O)[C@H](CC(=O)O)NC(=O)[C@H](CO)NC(=O)[C@@H](NC(=O)[C@H](Cc1ccccc1)NC(=O)[C@@H](NC(=O)CNC(=O)[C@H](CCC(N)=O)NC(=O)C(C)(C)NC(=O)[C@@H](N)Cc1c[nH]cn1)[C@@H](C)O)[C@@H](C)O)C(=O)N[C@@H](CO)C(=O)N[C@@H](CCCCN)C(=O)N[C@@H](Cc1ccc(O)cc1)C(=O)N[C@@H](CC(C)C)C(=O)N[C@@H](CC(=O)O)C(=O)NC(C)(C)C(=O)N[C@@H](CCCNC(=N)N)C(=O)N[C@@H](C)C(=O)N[C@@H](C)C(=O)N[C@@H](CCC(N)=O)C(=O)N[C@@H](CC(=O)O)C(=O)N[C@@H](Cc1ccccc1)C(=O)N[C@H](C(=O)N[C@@H](CCC(N)=O)C(=O)N[C@@H](Cc1c[nH]c2ccccc12)C(=O)N[C@@H](CC(C)C)C(=O)N[C@@H](CCSC)C(=O)N[C@@H](CC(=O)O)C(=O)NCC(=O)NCC(=O)N1CCC[C@H]1C(=O)N[C@@H](CO)C(=O)N[C@@H](CO)C(=O)NCC(=O)N[C@@H](C)C(=O)N1CCC[C@H]1C(=O)N1CCC[C@H]1C(=O)N1CCC[C@H]1C(=O)N[C@@H](CO)C(N)=O)C(C)C)C(=O)O)C(=O)O [compound 33] (H-H[Aib]QGTFTSDK([γGlu-γGlu-Palmitoyl])SKYLD[Aib]RAAQDFVQWLMDGGPSSGAPPPS-NH2)
EC50 [1, 8]: 0.005 nM
EC50 [2, 9]: 0.004 nM

CCCCCCCCCCCCCCCC(=O)N[C@@H](CCC(=O)NCCCC[C@H](NC(=O)[C@H](CC(=O)O)NC(=O)[C@H](CO)NC(=O)[C@@H](NC(=O)[C@H](Cc1ccccc1)NC(=O)[C@@H](NC(=O)CNC(=O)[C@H](CCC(N)=O)NC(=O)[C@@H](CO)NC(=O)[C@@H](N)Cc1c[nH]cn1)[C@@H](C)O)[C@@H](C)O)C(=O)N[C@@H](CO)C(=O)N[C@@H](CCCCN)C(=O)N[C@@H](Cc1ccc(O)cc1)C(=O)N[C@@H](CC(C)C)C(=O)N[C@@H](CC(=O)O)C(=O)N[C@@H](CCC(=O)O)C(=O)N[C@@H](CCCNC(=N)N)C(=O)N[C@@H](C)C(=O)N[C@@H](C)C(=O)N[C@@H](CCC(N)=O)C(=O)N[C@@H](CC(=O)O)C(=O)N[C@@H](Cc1ccccc1)C(=O)N[C@H](C(=O)N[C@@H](CCC(N)=O)C(=O)N[C@@H](Cc1c[nH]c2ccccc12)C(=O)N[C@@H](CC(C)C)C(=O)N[C@@H](CC(C)C)C(=O)N[C@@H](CC(=O)O)C(=O)NCC(=O)NCC(=O)N1CCC[C@H]1C(=O)N[C@@H](CO)C(=O)N[C@@H](CO)C(=O)NCC(=O)N[C@@H](C)C(=O)N1CCC[C@H]1C(=O)N1CCC[C@H]1C(=O)N1CCC[C@H]1C(=O)N[C@@H](CO)C(N)=O)C(C)C)C(=O)O [compound 27]
EC50 [1, 8]: 0.003 nM
EC50 [2, 9]: 0.002 nM
